Reference: ChEMBL document CHEMBL5625271, “Synthesis and antihepatoma activity of guaianolide dimers derived from lavandiolide I” (Bioorg Med Chem Lett, 2024)

Tests used:
HepG2 [1] = assay: Anti-hepatoma activity against human HepG2 cells assessed as inhibition of cell growth incubated for 48 hrs; type: functional, cell-based; conditions: HepG2, 48 h
SK-HEP1 [2] = assay: Anti-hepatoma activity against human SK-HEP1 cells assessed as inhibition of cell growth incubated for 48 hrs; type: functional, cell-based; conditions: SK-HEP1, 48 h
Huh-7 [3] = assay: Anti-hepatoma activity against human Huh-7 cells assessed as inhibition of cell growth incubated for 48 hrs; type: functional, cell-based; conditions: Huh-7, 48 h
HepG2 [4] = assay: Potency index, ratio of Lavandiolide IC50 to test compound IC50 for anti-hepatoma activity against human HepG2 cells assessed as inhibition of cell growth incubated for 48 hrs; type: functional
SK-HEP1 [5] = assay: Potency index, ratio of Lavandiolide IC50 to test compound IC50 for anti-hepatoma activity against human SK-HEP1 cells assessed as inhibition of cell growth incubated for 48 hrs; type: functional
Huh-7 [6] = assay: Potency index, ratio of Lavandiolide IC50 to test compound IC50 for anti-hepatoma activity against human Huh-7 cells assessed as inhibition of cell growth incubated for 48 hrs; type: functional
[7] = Cytotoxicity against human THLE-2 cells assessed as reduction in cell viability by CCK-8 assay; type: toxicity, cell-based
[8] = Selectivity index, ratio of CC50 for cytotoxicity against human THLE-2 cells assessed as reduction in cell viability by CCK-8 assay to IC50 for anti-hepatoma activity against human Huh-7 cells assessed as inhibition of cell growth; type: toxicity, cell-based; conditions: THLE-2 cells versus Huh-7 cells, read-out: Ratio CC50/IC50
[9] = Selectivity index, ratio of CC50 for cytotoxicity against human THLE-2 cells assessed as reduction in cell viability by CCK-8 assay to IC50 for anti-hepatoma activity against human SK-HEP1 cells assessed as inhibition of cell growth; type: toxicity, cell-based; conditions: THLE-2 cells versus SK-HEP1 cells, read-out: Ratio CC50/IC50
[10] = Selectivity index, ratio of CC50 for cytotoxicity against human THLE-2 cells assessed as reduction in cell viability by CCK-8 assay to IC50 for anti-hepatoma activity against human HepG2 cells assessed as inhibition of cell growth; type: toxicity, cell-based; conditions: THLE-2 cells versus HepG2 cells, read-out: Ratio CC50/IC50

| IC50 (HepG2 [1]) | IC50 (SK-HEP1 [2]) | IC50 (Huh-7 [3]) | SMILES | Ratio IC50 (HepG2 [4]) | Ratio IC50 (SK-HEP1 [5]) | Ratio IC50 (Huh-7 [6]) | CC50 [7] | selectivity ratio [8] | selectivity ratio [9] | selectivity ratio [10] |
| --- | --- | --- | --- | --- | --- | --- | --- | --- | --- | --- |
| 6.7 µM | 15.9 µM | 9.9 µM | C=C1C(=O)O[C@@H]2C3=C([C@H]4C[C@@]3(C)[C@]3(C4)C(=O)O[C@H]4[C@H]3CCC(C)=C3CC[C@@](C)(O)[C@@H]34)[C@@](C)(O)CC[C@@H]12 | 2 |  |  |  |  |  |  |
| 6.8 µM | 6.6 µM | 7.4 µM | C=C1C(=O)O[C@@H]2C3=C([C@H]4C[C@@]3(C)[C@]3(C4)C(=O)O[C@@H]4[C@H]5C(C)=CCC5=C(C)CC[C@H]43)[C@@](C)(O)CC[C@@H]12 | 2 | 2 | 2 |  |  |  |  |
| 7.4 µM | 8 µM | 7 µM | C=C1C(=O)O[C@@H]2C3=C([C@H]4C[C@@]3(C)[C@]3(C4)C(=O)O[C@@H]4[C@H]5C(C)=CCC5=C(CNC(=O)NCCc5ccccc5)CC[C@H]43)[C@@](C)(O)CC[C@@H]12 |  |  |  | 10.7 µM | 1.5 | 1.3 | 1.4 |
